Experimental data published in paper PMC8895377, “In Vivo Targeting Replication Protein A for Cancer Therapy” (Frontiers in Oncology, 2022).
Values after ≈ are worked out from the molar mass of the structure shown. Like-named read-outs stand apart in the source and are kept apart here.

How the values were obtained:
[1] = In vivo toxicity analysis
[2] = Chemical stability in lead formulation; type: physicochemical; details: for t90: 10 mg/ml in lead formulation; for predicted time stable: lead formulation; for fourteen-day stability: final formulation
Description: (§1) With favorable potency, cellular activity, plasma stability, and a clear deficit in PK, we initiated a series of studies to assess and optimize a formulation of 329 for in vivo bioavailability. Here, 329 solubility was assessed in a series of additives, excipients, and co-solvents to identify initial favorable vehicles ( Table 2 ). […] A series of different formulations were assessed. The final formulation consisted of polysorbate 80, N-methyl-2-pyrrolidone (NMP), propylene glycol, and PEG 400 (+1.1 mol. eq. HCl added as 12 M HCl), and 329 was soluble up to 20 mg/ml, and 10-fold dilution in PBS was well dispersed with minimal precipitation.
Figure 7 The 329 in vivo analysis. (A) Stability analysis. Compound stability was assessed over a 14-day time period at varying temperatures as indicated. (B) Pharmacokinetic analysis. Time course of drug plasma concentration over 24 h following drug administration as indicated in legend.

H460 cells = assay: Caspase 3/7 apoptosis assay; type: cell-based, human; details: H460, 24 h
Description: Apoptosis induction was determined by activation of Caspases 3 and 7 using the CellEvent™ Caspase-3/7 Green Detection Reagent (Invitrogen). H460 cells were plated at 5 × 10^3 cells/well in black 96-well plates with clear bottoms (Costar) and incubated for 24 h prior to treatments. Cells were treated with the indicated concentration of RPAi or cisplatin for 24 h. The vehicle (DMSO) concentration was held constant at 1% for RPAi treatments. For caspase 3/7 detection, medium was removed and replaced with phosphate buffered saline (PBS) containing 5% fetal bovine serum (FBS) and 2 µM CellEvent™ Caspase-3/7 Green Detection Reagent. Cells were incubated at 37°C/5% CO2 for 1 h, and fluorescence intensity was measured in a BioTek Synergy H1 plate reader (excitation/emission 485/528). Images were captured with an Evos FL2 Auto microscope (Invitrogen) using a 10× objective.
Figure 3 The 329 induction of apoptotic cell death. (A) Analysis of caspase 3/7 activity in H460 cells following 24 h of treatment with 1% DMSO or the indicated concentrations of 329. Fluorescence images were captured as described in the Materials and Methods. (B) Quantification of caspase 3/7 activity. Fluorescence was measured in 96-well plates using a Biotek Synergy H1 plate reader following 24-h incubation with the indicated drugs and concentrations.

[3] = test system: A549 adenocarcinoma xenografts; assay: A549 xenograft efficacy; type: in vivo, mice
Text: (§2) To assess anticancer efficacy, the hind flanks of 60 8–10-week-old Nod SCID gamma (NSG) mice were implanted with the indicated cells (~2 × 10^6) in Matrigel. Tumor volumes were monitored by electronic caliper measurement [tumor volumes = length × (perpendicular width)^2 × 0.5]. NSG studies were approved by the Institutional Animal Care and Use Committee at Indiana University School of Medicine. Male NSG (NOD‐scid/IL2Rg^null) mice (In Vivo Therapeutics Core Facility, IU Simon Comprehensive Cancer Center, Indianapolis, IN, USA) were used and housed in a pathogen‐free facility at IUSM LARC. Mice with tumors of approximately 100 mm^3 were randomized into individual treatment arms. The indicated RPAi was formulated and administered via intraperitoneal injection (IP) at the indicated times. Tumor volumes were monitored biweekly as indicated, and the results are presented as the average tumor volume ± standard error of the mean for each group. […]
(§3) Figure 8 In vivo analysis of anticancer activity of 329. (A) Anticancer activity was assessed in human H460 NCSLC tumor xenografts in NOD/SCID mice. Mice were implanted subcutaneously on day 1 with H460 NSCLC cells, tumors were measured by calipers, and mice assigned randomly to treatment arms. […] (C) Tumor weight from A549 cells was determined on day 32. […]

[4] = Intrinsic clearance and half-life in mouse microsomes; type: in vitro ADME
Text: Toward the goal to identify efficacious and safe RPAi 329 treatment regimens, we conducted single-agent screening in two lung cancer cell line-derived xenograft models. […] Having optimized cellular uptake and solubility via the addition of the propyl morpholino in 329 and 2004, we sought to determine how these modifications impact in vivo anticancer activity using two NSCLC models, A549 adenocarcinoma and H460 large cell carcinoma. […] Analyses of intrinsic clearance and half-life were conducted in mouse and rat microsomes ( Table 1 ). […] These values are less than the rate of 48, which is considered rapid clearance. In rat microsomes, rates of ~64 were obtained for 329 and are less than the rapid rate of 71.

[5] = test system: H460 NSCLC tumor xenografts; assay: H460 NSCLC xenograft efficacy; type: in vivo, mice; details: 20 mg/kg IP daily for 5 days, 2 days off, repeated 3 times, optimized formulation
Text: as §2, §3

[6] = Vehicle/excipient solubility screen; type: physicochemical
Description: as §1

[7] = test system: A549 adenocarcinoma and H460 large cell carcinoma; design: method as in doi:10.1101/2020.11.30.404640; details: both models, differing dosing regimens, DMSO/Tween; cited from earlier work

For `CCOc1ccc2cc(C3CC(c4ccc(I)cc4)=NN3C(=O)CCCC(=O)NCCCN3CCOCC3)c(Cl)nc2c1` (centres unmarked) [compound 329], the toxicity ([1]; 200 mg/kg in the new formulation) was “increased toxicity”, the kidney function ([1]; DMSO/Tween formulation, data not shown) was “no differences from vehicle controls” and the toxicity ([1]; dosing up to 200 mg/kg, suspension in DMSO/Tween) was “no overt toxicity”. The body weight ([1]; up to 200 mg/kg, suspension in DMSO/Tween) was “no significant loss in body weight”, the t90 ([2]; 5°C (extrapolated)) was 2100 days and the predicted time stable ([2]; 5°C, extrapolated) was “over 5 years”. For the same molecule, the t90 ([2]; 25°C) was 140 days, the t90 ([2]; 40°C) was 26 days and the t90 ([2]; 60°C) was 3.2 days. The fourteen-day stability ([2]; extended incubations at 60°C) was “degradation was observed”, the predicted time stable ([2]; room temperature) was “over 3 months” and the fourteen-day stability ([2]; up to 40°C) was “very stable”. For the same molecule, the “activation of caspases 3 and 7” value (H460 cells) was “induces cell death via a classical apoptotic pathway”, the tumor growth ([3]; 40 mg/kg IP once daily from day 11, optimized formulation) was “significant reduction in tumor growth” and the terminal tumor weight ([3]; 40 mg/kg IP, day 32) was “significant smaller tumors”. For the same molecule, the microsomal CLint ([4]; Mouse microsomes) was 31.7 µL/min/mg, the half-life ([4]; Mouse microsomes, read-out: t1/2) was 43.9 min and the half-life ([4]; mouse, rat, microsomes, in mice and rats, read-out: half-lives) was 20 to 40 min. The tumor volume [5] was “a decrease in tumor volume was observed starting at day 17”, the solubility ([6]; 30% SBECD in water, aqueous with cosolvent or surfactant or cyclodextrin, read-out: Solubility) was < 1000 µg/mL and the solubility ([6]; Cremophor EL, aqueous with cosolvent or surfactant or cyclodextrin, read-out: Solubility) was < 1000 µg/mL. The solubility ([6]; Labrasol, aqueous with cosolvent or surfactant or cyclodextrin, read-out: Solubility) was 1100 µg/mL (≈ 1530 µM), the solubility ([6]; NMP (N-methyl-2-pyrrolidone), organic solvent or mixture, read-out: Solubility) was 70400 µg/mL (≈ 98000 µM) and the solubility ([6]; aqueous buffer, 50 mM sodium acetate pH 4, read-out: Solubility) was < 1000 µg/mL. For the same molecule, the solubility ([6]; ethanol, organic solvent or mixture, read-out: Solubility) was < 1000 µg/mL, the solubility ([6]; oleic acid, oil or lipid, read-out: Solubility) was 2400 µg/mL (≈ 3340 µM) and the solubility ([6]; organic solvent or mixture, polysorbate 80, NMP, propylene glycol, PEG 400 (+1.1 mol. eq. HCl), read-out: solubility in final formulation) was ≤ 20000 µg/mL. The solubility ([6]; polyethylene glycol 400, organic solvent or mixture, read-out: Solubility) was 1200 µg/mL (≈ 1670 µM), the solubility ([6]; polysorbate 80, aqueous with cosolvent or surfactant or cyclodextrin, Polysorbate 8O, read-out: Solubility) was < 1000 µg/mL and the solubility ([6]; propylene glycol, organic solvent or mixture, read-out: Solubility) was 1300 µg/mL (≈ 1810 µM). The solubility ([6]; water, read-out: Solubility) was < 1000 µg/mL and the “single-agent anticancer activity in vivo” value [7] was “only modest single-agent anticancer activity”.
